Reference: patent US20260083704A1, “LXR MODULATORS WITH BICYCLIC CORE MOIETY FOR TREATING DYSLIPIDEMIAS” (OrsoBio, Inc., priority 2022, published 2026)
pEC50: −log10 of the molar value.

Experiments:
[1] = target: T1, LXRβ (Homo sapiens, UniProt P55055); test: LXR Gal4 reporter transient transfection assay (mammalian two-hybrid, HEK293), LXRβ; format: cell-based; set-up: LXRβ (amino acids 156-461); expressed in transfected cells; host or cells: HEK293; conditions: full length (FL) LXRβ, HEK293; read-out: FL-M2H Gal4β
T1 sequence (P55055 1-460): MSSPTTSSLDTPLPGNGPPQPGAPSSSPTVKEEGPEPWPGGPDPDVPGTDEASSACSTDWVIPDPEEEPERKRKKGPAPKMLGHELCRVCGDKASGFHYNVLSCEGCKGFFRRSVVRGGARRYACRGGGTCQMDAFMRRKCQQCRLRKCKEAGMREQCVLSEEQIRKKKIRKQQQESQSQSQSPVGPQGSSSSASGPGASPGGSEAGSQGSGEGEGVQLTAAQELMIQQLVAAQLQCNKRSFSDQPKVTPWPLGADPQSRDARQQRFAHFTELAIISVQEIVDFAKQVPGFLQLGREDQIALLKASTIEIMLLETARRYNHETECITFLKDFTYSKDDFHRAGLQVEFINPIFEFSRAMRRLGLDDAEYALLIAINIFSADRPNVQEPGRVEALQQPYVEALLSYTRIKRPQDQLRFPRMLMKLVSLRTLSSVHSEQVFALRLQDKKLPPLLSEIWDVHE
Method in brief: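 Mammalian two-hybrid read-out of LXR–coactivator (SRC1) or corepressor (NCoR) interaction: firefly luciferase under GAL4 response elements, normalised via Renilla co-transfection. LXRα/β full-length or LBD fusions expressed transiently in HEK293; compounds (final DMSO ≤0.2%) given 4 h after transfection for 16 h before lysis.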

[2] = Short term HFD mouse model: plasma and liver exposure; format: in vivo; conditions: HFD mice, 4 h after final dose
Description: The in vivo transcriptional regulation of several LXR target genes by LXR modulators was assessed in mice.
For this, C57BL/6J were purchased from Elevage Janvier (Rennes, France) at the age of 8 weeks. After an acclimation period of two weeks, animals were prefed on a high fat diet (HFD) (Ssniff Spezialdiäten GmbH, Germany, Surwit EF D12330 mod, Cat. No. E15771-34), with 60 kcal % from fat plus 1% (w/w) extra cholesterol (Sigma-Aldrich, St. Louis, MO) for 5 days. Animals were maintained on this diet during treatment with LXR modulators. The test compounds were formulated in 0.5% hydroxypropylmethylcellulose (HPMC) and administered in three doses (from 1.5 to 20 mg/kg each) by oral gavage according to the following schedule: on day one, animals received treatment in the morning and the evening (ca. 17:00), on day two animals received the final treatment in the morning after a 4 h fast and were sacrificed 4 h thereafter. Animal work was conducted according to the national guidelines for animal care in Germany.
Upon termination, liver was collected, dipped in ice cold PBS for 30 seconds and cut into appropriate pieces. Pieces were snap frozen in liquid nitrogen and stored at −80° C. For the clinical chemistry analysis from plasma, alanine aminotransferase (ALT, IU/mL), cholesterol (CHOL, mg/dL) and triglycerides (TG, mg/dL) were determined using a fully-automated bench top analyzer (Respons®910, DiaSys Greiner GmbH, Flacht, Germany) with system kits provided by the manufacturer.

[3] = three oral doses of 20 mg/kg over two days
[4] = three oral doses of 10 mg/kg over two days

Row | Structure (SMILES) | pEC50 [1] | liver exposure 4 h [2, 3] | liver/plasma ratio 4 h [2, 3] | plasma exposure 4 h [2, 3] | liver exposure 4 h [2, 4] | liver/plasma ratio 4 h [2, 4] | plasma exposure 4 h [2, 4]
1 | Cc1ccc(S(=O)(=O)n2c(-c3cccc(-c4ccc(C(=O)O)cc4Cl)c3)c(-c3ccsc3C#N)c3cc(F)ccc32)cc1 [3/48] | > 7.00 | C (1 μM to ≤10 μM) | C (30 to ≤100) | D (<100 nM) | – | – | –
2 | O=C(O)c1ccc(-c2cccc(-c3c(-c4ccccc4C4COC4)c4cc(F)ccc4n3S(=O)(=O)c3ccc(C(F)F)cc3)c2)c(Cl)c1 [3/59] | > 7.00 | C (1 μM to ≤10 μM) | B (5 to ≤30) | C (100 nM to <300 nM) | – | – | –
3 | Cc1ccc(S(=O)(=O)n2c(-c3cccc(C45CCC(C(=O)O)(CC4)CC5)c3)c(-c3ccsc3C#N)c3cc(F)ccc32)cc1 [3/64] | > 7.00 | D (>10 μM) | D (>100) | C (100 nM to <300 nM) | – | – | –
4 | N#Cc1cccc(C#N)c1-c1c(-c2cccc(-c3c(F)cc(CC(=O)O)cc3F)c2)n(S(=O)(=O)c2ccc(C(F)F)cc2)c2ccc(F)cc12 [3/73] | > 7.00 | – | – | – | B (300 nM to ≤1 μM) | C (30 to ≤100) | D (<100 nM)
5 | Cc1ccc(S(=O)(=O)n2c(-c3cccc(-c4ccc(C(=O)O)cc4)c3)c(-c3ccsc3C#N)c3cc(F)ccc32)cc1 [5/3] | > 7.00 | C (1 μM to ≤10 μM) | B (5 to ≤30) | D (<100 nM) | – | – | –
6 | CC(=O)NS(=O)(=O)c1ccc(-c2cccc(-c3c(-c4c(C#N)cccc4C#N)c4cc(F)ccc4n3S(=O)(=O)c3ccc(C(F)F)cc3)c2)c(Cl)c1 [8/8] | > 7.00 | – | – | – | B (300 nM to ≤1 μM) | B (5 to ≤30) | C (100 nM to <300 nM)
7 | N#Cc1cccc(C#N)c1-c1c(-c2cccc(-c3ccc(C(=O)NCCS(=O)(=O)O)cc3Cl)c2)n(S(=O)(=O)c2ccc(C(F)F)cc2)c2ccc(F)cc12 [10/1] | > 7.00 | – | – | – | B (300 nM to ≤1 μM) | C (30 to ≤100) | D (<100 nM)
8 | CN(CCS(=O)(=O)O)C(=O)c1ccc(-c2cccc(-c3c(-c4c(C#N)cccc4C#N)c4cc(F)ccc4n3S(=O)(=O)c3ccc(C(F)F)cc3)c2)c(Cl)c1 [10/2] | > 7.00 | – | – | – | D (>10 μM) | B (5 to ≤30) | D (<100 nM)
9 | N#Cc1nccnc1-c1c(-c2cccc(-c3cc(F)c(C(=O)O)cc3Cl)c2)n(S(=O)(=O)c2ccc(C(F)F)cc2)c2ccc(F)cc12 [11/11] | > 7.00 | D (>10 μM) | D (>100) | D (<100 nM) | – | – | –
10 | N#Cc1cccc(C#N)c1-c1c(-c2cccc(-c3ccc(C(=O)O)cc3Cl)c2)n(S(=O)(=O)c2ccc(C(F)F)cc2)c2ccc(F)cc12 [11/12] | > 7.00 | C (1 μM to ≤10 μM) | C (30 to ≤100) | D (<100 nM) | – | – | –
11 | O=C(O)c1ccc(-c2cccc(-c3c(-c4c(Cl)cccc4Cl)c4cc(F)ccc4n3S(=O)(=O)c3ccc(C(F)F)cc3)c2)c(Cl)c1 [11/13] | > 7.00 | C (1 μM to ≤10 μM) | A (<5) | A (>1 μM) | – | – | –
12 | N#Cc1sccc1-c1c(-c2cccc(-c3ccc(C(=O)O)cc3Cl)c2)n(S(=O)(=O)c2ccc(C(F)(F)F)nc2)c2ccc(F)cc12 [11/16] | > 7.00 | C (1 μM to ≤10 μM) | B (5 to ≤30) | C (100 nM to <300 nM) | – | – | –
13 | O=C(O)c1ccc(-c2cccc(-c3c(-c4ncccc4C(F)(F)F)c4cc(F)ccc4n3S(=O)(=O)c3ccc(C(F)F)cc3)c2)c(Cl)c1 [11/23] | > 7.00 | C (1 μM to ≤10 μM) | B (5 to ≤30) | C (100 nM to <300 nM) | – | – | –
14 | N#Cc1cccnc1-c1c(-c2cccc(-c3ccc(C(=O)O)cc3Cl)c2)n(S(=O)(=O)c2ccc(C(F)F)cc2)c2ccc(F)cc12 [11/26] | > 7.00 | – | – | – | C (1 μM to ≤10 μM) | C (30 to ≤100) | C (100 nM to <300 nM)
15 | COc1c(C(=O)O)ccc(-c2cccc(-c3c(-c4ccccc4C#N)c4cc(F)ccc4n3S(=O)(=O)c3ccc(C(F)F)cc3)c2)c1Cl [11/27] | > 7.00 | C (1 μM to ≤10 μM) | C (30 to ≤100) | D (<100 nM) | – | – | –
16 | N#Cc1ccccc1-c1c(-c2cccc(-c3ccc(C(=O)O)cc3Cl)c2)n(S(=O)(=O)c2ccc(C(F)F)cc2)c2ccc(F)cc12 [11/33] | > 7.00 | C (1 μM to ≤10 μM) | C (30 to ≤100) | C (100 nM to <300 nM) | – | – | –
17 | N#Cc1cccc(C#N)c1-c1c(-c2cccc(-c3ccc(C(=O)O)cc3Cl)c2)n(S(=O)(=O)c2ccc(C(F)(F)F)nc2)c2ccc(F)cc12 [11/37] | > 7.00 | – | – | – | C (1 μM to ≤10 μM) | C (30 to ≤100) | D (<100 nM)
18 | N#Cc1ccccc1-c1c(-c2cccc(-c3ccc(C(=O)O)cc3Cl)c2)n(S(=O)(=O)c2ccc(C(F)F)cc2)c2cnccc12 [11/49] | > 7.00 | C (1 μM to ≤10 μM) | D (>100) | D (<100 nM) | – | – | –
19 | N#Cc1cccc(C#N)c1-c1c(-c2cccc(-c3ccc(C(=O)O)cc3F)c2)n(S(=O)(=O)c2ccc(C(F)F)cc2)c2ccc(F)cc12 [11/51] | > 7.00 | – | – | – | C (1 μM to ≤10 μM) | C (30 to ≤100) | D (<100 nM)
20 | N#Cc1cccc(C#N)c1-c1c(-c2cccc(-c3c(F)cc(C(=O)O)cc3F)c2)n(S(=O)(=O)c2ccc(C(F)F)cc2)c2ccc(F)cc12 [11/53] | > 7.00 | – | – | – | C (1 μM to ≤10 μM) | C (30 to ≤100) | D (<100 nM)
21 | N#Cc1cccc(C#N)c1-c1c(-c2cccc(-c3ccc(C(=O)O)cc3Cl)c2)n(S(=O)(=O)C2CCC(F)(F)CC2)c2ccc(F)cc12 [11/63] | > 7.00 | – | – | – | C (1 μM to ≤10 μM) | B (5 to ≤30) | D (<100 nM)
22 | N#Cc1cccc(C#N)c1-c1c(-c2cccc(-c3cc(F)c(C(=O)O)cc3Cl)c2)n(S(=O)(=O)c2ccc(C(F)F)cc2)c2ccc(F)cc12 [11/65] | > 7.00 | – | – | – | C (1 μM to ≤10 μM) | C (30 to ≤100) | D (<100 nM)
23 | Cc1ccc(S(=O)(=O)n2c(-c3cccc(-c4ccc(C(=O)O)cc4)c3)c(-c3ccsc3C#N)c3cc(F)ccc32)cc1C [23/2] | > 7.00 | A (<300 nM) | A (<5) | C (100 nM to <300 nM) | – | – | –
24 | N#Cc1cccc(C#N)c1-c1c(-c2cccc(-c3ccc(C(=O)NCC(=O)O)cc3Cl)c2)n(S(=O)(=O)c2ccc(C(F)F)cc2)c2ccc(F)cc12 [Compound 21/3] | > 7.00 | – | – | – | C (1 μM to ≤10 μM) | D (>100) | D (<100 nM)
